From the supplement of paper PMC10307832

Key:
Test in all cases: relative viability (nuclei count vs DMSO), 5 days (fraction); higher = more cells survive
Dabrafenib + Crizotinib = compound: CC(C)(C)c1nc(-c2cccc(NS(=O)(=O)c3c(F)cccc3F)c2F)c(-c2ccnc(N)n2)s1 [Dabrafenib] + C[C@@H](Oc1cc(-c2cnn(C3CCNCC3)c2)cnc1N)c1c(Cl)ccc(F)c1Cl [Crizotinib] (partner 1 µM)
Method in brief: (§1)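 Cells from lung cancer lines were seeded into 1536-well plates and, one day later, dosed by pin tool. Treatments were either a single drug or a fixed dose of an anchor drug with five library-drug doses (not always all listed) in √10 steps. After 5 days, nuclei were stained in a one-step fixation (final 0.05% Triton X-100, 1% formaldehyde, 1 ug/ml Hoechst) and counted on 4× images, and relative viability is the treated-to-vehicle nuclei ratio, as the median of duplicate plates.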

VX-702 + AZD7762 = compound: NC(=O)c1ccc(N(C(N)=O)c2c(F)cccc2F)nc1-c1ccc(F)cc1F [VX-702] + NC(=O)Nc1cc(-c2cccc(F)c2)sc1C(=O)N[C@H]1CCCNC1 [AZD7762] (partner 0.2 µM)
Method in brief: as §1

VX-702 + Bortezomib = compound: NC(=O)c1ccc(N(C(N)=O)c2c(F)cccc2F)nc1-c1ccc(F)cc1F [VX-702] + CC(C)C[C@H](NC(=O)[C@H](Cc1ccccc1)NC(=O)c1cnccn1)B(O)O [Bortezomib] (partner 0.002 µM)
Method in brief: as §1

Dabrafenib + Bortezomib = compound: CC(C)(C)c1nc(-c2cccc(NS(=O)(=O)c3c(F)cccc3F)c2F)c(-c2ccnc(N)n2)s1 [Dabrafenib] + CC(C)C[C@H](NC(=O)[C@H](Cc1ccccc1)NC(=O)c1cnccn1)B(O)O [Bortezomib] (partner 0.002 µM)
Method in brief: as §1

| Cell Line | relative viability (Dabrafenib + Crizotinib; first compound 0.003 µM) | relative viability (Dabrafenib + Crizotinib; first compound 0.009487 µM) | relative viability (Dabrafenib + Crizotinib; first compound 0.03 µM) | relative viability (Dabrafenib + Crizotinib; first compound 0.09487 µM) | relative viability (Dabrafenib + Crizotinib; first compound 0.3 µM) | relative viability (VX-702 + AZD7762; first compound 0.02 µM) | relative viability (VX-702 + AZD7762; first compound 0.2 µM) | relative viability (VX-702 + AZD7762; first compound 0.6325 µM) | relative viability (VX-702 + AZD7762; first compound 2 µM) | relative viability (VX-702 + Bortezomib; first compound 0.02 µM) | relative viability (VX-702 + Bortezomib; first compound 0.2 µM) | relative viability (VX-702 + Bortezomib; first compound 0.6325 µM) | relative viability (VX-702 + Bortezomib; first compound 2 µM) | relative viability (Dabrafenib + Bortezomib; first compound 0.003 µM) | relative viability (Dabrafenib + Bortezomib; first compound 0.009487 µM) | relative viability (Dabrafenib + Bortezomib; first compound 0.03 µM) | relative viability (Dabrafenib + Bortezomib; first compound 0.09487 µM) | relative viability (Dabrafenib + Bortezomib; first compound 0.3 µM) |
| --- | --- | --- | --- | --- | --- | --- | --- | --- | --- | --- | --- | --- | --- | --- | --- | --- | --- | --- |
| EKVX | 0.875 | 1.12 | 0.783 | 0.702 | 1.01 | 0.726 | 0.673 | 0.407 | 0.776 | 1.01 | 0.738 | 1.05 | 1.42 | 0.77 | 1.1 | 0.969 | 0.891 | 1.12 |
| EMC-BAC-2 | 0.859 | 0.749 | 0.678 | 0.672 | 0.828 | 1.11 | 1.08 | 1.16 | 1.08 | 1.11 | 1.04 | 1.04 | 1.09 | 1.04 | 1.11 | 1.03 | 0.936 | 1.06 |
| EPLC-272H | – | 1.17 | 0.784 | 0.976 | 0.83 | 0.0171 | 0.202 | 0.234 | 0.211 | 0.897 | 0.836 | 1.05 | 0.956 | – | 0.945 | 0.954 | 0.631 | 1.18 |
| H3255 | 0.968 | 1.19 | 0.954 | 0.873 | 0.906 | 0.987 | 0.901 | 0.994 | 0.996 | 0.716 | 0.772 | 1.02 | 0.917 | 0.703 | 0.858 | 0.997 | 0.642 | 1.09 |
| HARA | 0.975 | 1.04 | 1.01 | 0.855 | 1.11 | 0.313 | – | 0.306 | 0.331 | 0.605 | 1.05 | 1.17 | 1.34 | 1.17 | 1.16 | 1 | 1.06 | 1.27 |
| HCC-15 | 0.906 | 0.881 | 0.832 | 0.75 | 0.827 | 1.31 | 1.18 | 1.32 | 1.19 | 1.07 | 0.929 | 1.09 | 1.05 | 1.06 | 0.971 | 0.997 | 0.891 | 0.814 |
| HCC-44 | 0.769 | 0.785 | 0.847 | 0.718 | 0.794 | 1.05 | 1.03 | 1.06 | 1.04 | 0.909 | 0.856 | 0.845 | 0.992 | 0.884 | 0.854 | 0.935 | 0.853 | 0.964 |
| HCC-78 | – | 0.403 | 0.278 | 0.329 | 0.362 | 0.541 | 0.589 | 0.774 | 0.798 | 0.314 | 0.521 | 0.472 | 0.506 | – | 0.655 | 0.543 | 0.4 | 0.513 |
| HCC-366 | – | 0.542 | 0.436 | 0.44 | 0.572 | 0.381 | 0.218 | 0.372 | 0.123 | 1.01 | 0.969 | 1.12 | 0.634 | – | 1.05 | 0.794 | 0.945 | 1.08 |
